Assay results: patent US7713969B2, “Compositions and methods for treatment of cancer” (ArQule, Inc., priority 2005, dated 2010)
Each block holds one compound with its values, some of them ahead of it.

Assays:
[1] = system: Recombinant Protein Kinase C; assay: Protein Kinase C kinase reaction, Histone H1, autoradiography (Example 79); type: biochemical; details: 0.05, 0.5, or 10 μM, 15 minutes at room temperature
Protocol: Recombinant Protein Kinase C (Calbiochem) (100 ng) was incubated with (±)-cis-3-(5,6-dihydro-4H-pyrrolo[3,2,1-ij]quinolin-1yl)-4(1H-indol-3-yl)pyrrolidine-2,5-dione or (±)-trans-3-(5,6-dihydro-4H-pyrrolo[3,2,1-ij]quinolin-1-yl)-4(1H-indol-3-yl)pyrrolidine-2,5-dione at 0.05, 0.5, or 10 μM for 15 minutes at room temperature. Subsequently, a radioactive labeling mix in kinase buffer (20 mM Tris-HCl pH 7.5, 10 mM MgCl2) containing 20 μM ATP, 0.2 μCi/μl γ^32P-ATP, 0.2 μg/μl Histone H1 (Upstate) was added to each sample. The kinase reaction was carried out for 5 minutes at room temperature. Reaction products were analyzed by 12% SDS-PAGE and autoradiography.

[2] = system: MDA-MB-231 human breast cancer xenograft; assay: MDA-MB-231 xenograft, intraperitoneal 80 mg/kg (Example 82); type: in vivo, mice; details: 80 mg/kg intraperitoneally, 5 days on/2 off, four cycles, DMA/PEG 400
Protocol: Athymic female nude mice (CRL:NU/NU-nuBR) were injected subcutaneously in the flank with MDA-MB-231 human breast cancer cells (8×10^6 cells/mouse). Prior to injection, MDA-MB-231 cells were cultured in DMEM (Invitrogen #11965-092) supplemented with 10% (v/v) heat inactivated fetal bovine serum (FBS), 1% Hepes buffer solution (Invitrogen #15630-080) and 1% Penicillin/Streptomycin (Invitrogen #15140-122) at 37° C. in 5% CO2. Tumors were allowed to grow to approximately 50 mm^3 in size. Animals were randomized into three groups of eight animals per group. At day four post injection, mice with established tumors were treated intraperitoneally with (±)-Cis-3-(5,6-dihydro-4H-pyrrolo[3,2,1-ij]quinolin-1yl)-4(1H-indol-3-yl)pyrrolidine-2,5-dione (80 mg/kg), (±)-Trans-3-(5,6-dihydro-4H-pyrrolo[3,2,1-ij]quinolin-1-yl)-4(1H-indol-3-yl)pyrrolidine-2,5-dione (80 mg/kg) administered in DMA/PEG 400 (1:4 v/v) as the vehicle at 50 mg/ml, or vehicle control intraperitoneally. […] Tumor size was evaluated periodically during the study. For each subject, tumor volume was calculated using the formula (L×W^2)/2 where L and W were the length and width of the tumor, respectively. The arithmetic mean tumor volume was calculated for each treatment group+/−standard error of the mean (SEM). […]

[3] = system: MDA-MB-231 cells or Paca-2 cells; assay: Cell survival in six-well plates, Wright-Giemsa stain (Example 77); type: cell-based; details: Homo sapiens; 0.1-2 μM, cultures observed 10-15 days; cell line of the IC50 not stated
Protocol: Exponentially growing MDA-MB-231 cells or Paca-2 cells were seeded at 1,000 cells per well in six-well plates and allowed to attach for 24 hours. MDA-MB-231 and Paca-2 cells were cultured in DMEM supplemented with 10% (v/v) fetal calf serum (FCS) and 5 ml Penicillin/Streptomycin at 37° C. in 5% CO2. MDA-MB-231 and Paca-2 were established estrogen receptor negative human breast cancer and pancreatic carcinoma cell lines, respectively. (±)-cis-3-(5,6-dihydro-4H-pyrrolo[3,2,1-ij]quinolin-1yl)-4(1H-indol-3-yl)pyrrolidine-2,5-dione or (±)-trans-3-(5,6-dihydro-4H-pyrrolo[3,2,1-ij]quinolin-1-yl)-4(1H-indol-3-yl)pyrrolidine-2,5-dione were each dissolved at a concentration of 10 mM in DMSO, and separately added to cells at a concentration of 0.1, 0.25, 0.5, 1 or 2 μM. Control plates received DMSO alone, at the same percentage of total culture volume as that administered in conjunction with the highest concentration of drug. Cell cultures were observed daily for 10-15 days, then fixed and stained with modified Wright-Giemsa stain (Sigma). Treatment with (±)-cis-3-(5,6-dihydro-4H-pyrrolo [3,2,1-ij]quinolin-1yl)-4(1H-indol-3-yl)pyrrolidine-2,5-dione or (±)-trans-3-(5,6-dihydro-4H-pyrrolo[3,2,1-ij]quinolin-1-yl)-4(1H-indol-3-yl)pyrrolidine-2,5-dione results in cell death of MDA-MB-231 cells or Paca-2 cells. See, e.g., FIG. 2.

[4] = system: MDA-MB-231 human breast cancer xenograft; assay: MDA-MB-231 xenograft, intraperitoneal 160 mg/kg (Example 81); type: in vivo, mice; details: 160 mg/kg intraperitoneally, q3d×10, lipiodol vehicle
Protocol: Athymic female nude mice (CRL:NU/NU-nuBR) were injected subcutaneously in the flank with MDA-MB-231 human breast cancer cells (8×10^6 cells/mouse). Prior to injection, MDA-MB-231 cells were cultured in DMEM (Invitrogen #11965-092) supplemented with 10% (v/v) heat inactivated fetal bovine serum (FBS), 1% Hepes buffer solution (Invitrogen #15630-080) and 1% Penicillin/Streptomycin (Invitrogen #15140-122) at 37° C. in 5% CO2. Tumors were allowed to grow to approximately 50 mm^3 in size. Animals were randomized into three groups of five animals per group. At day ten post injection, mice with established tumors were treated intraperitoneally with (±)-cis-3-(5,6-dihydro-4H-pyrrolo[3,2,1-ij]quinolin-1yl)-4(1H-indol-3-yl) pyrrolidine-2,5-dione (160 mg/kg), (±)-trans-3-(5,6-dihydro-4H-pyrrolo[3,2,1-ij]quinolin-1-yl)-4(1H-indol-3-yl)pyrrolidine-2,5-dione (160 mg/kg) administered in iodinated poppy seed oil (lipiodol) as the vehicle at 10 mg/ml, or vehicle control. Drug or vehicle was administered every three days for a total of ten doses (q3d×10). Tumor size was evaluated periodically during the study. For each subject, tumor volume was calculated using the formula (L×W^2)/2 where L and W were the length and width of the tumor, respectively. The arithmetic mean tumor volume was calculated for each treatment group+/−standard error of the mean (SEM). […]

MDA-MB-231 = assay: Cell viability MTS assay; type: cell-based, human
Outline: (§1)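 Tetrazolium (MTS) viability read after 72 hours of compound treatment in DMEM with 15% FBS, 10 mM L-glutamine and 10 mM Hepes pH 7.5. IC50 derived by non-linear regression relative to 0.33% DMSO controls.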

HT29 = assay: Cell viability MTS assay; type: cell-based, human
Outline: as §1

MDA-MB-231 cells = assay: Colony counting, surviving fraction (Example 78); type: cell-based, human; details: two days incubation, colonies counted two weeks later; read-out: IC50 (surviving fraction equaled 50)
Protocol: MDA-MB-231 cells (ATCC# HTB-26), grown in DMEM plus 15% heat inactivated fetal bovine serum plus 10 mM HEPES pH 7.5, were plated in 60 mm plates (2×10^5 cells per plate). After two days candidate compounds in DMSO at various concentrations were diluted in media and added to individual plates such that the final DMSO concentration in the cell culture media was 0.1%. After two days incubation the culture was trypsinized, cells were washed with media, counted using a hemocytometer and 500 cells, including cell bodies, were plated in […] in media. Two weeks later the media was removed and the cell colonies were fixed with methanol for 10 minutes, stained with 1% crystal violet 10 minutes, washed with water and air dried. Cell colonies were visually counted when there were greater then 50 cells present per colony. Plating efficiency was defined as the average number of colonies formed divided by 500. The surviving fraction was defined as the plating efficiency of a candidate compound divided by the plating efficiency of DMSO multiplied by 100. For candidate compound titrations, the IC50 concentration was determined by fitting the equation y=AeBx to the data points and extrapolating the concentration where surviving fraction equaled 50. […]

PC-3 = assay: Cell viability MTS assay; type: cell-based, human; details: 72 hours with compound
Outline: as §1

NCI-H446 = assay: Cell viability MTS assay; type: cell-based, human; details: 72 hours with compound
Outline: as §1

SK-MEL-28 = assay: Cell viability MTS assay; type: cell-based, human; details: 72 hours with compound
Outline: as §1

MCF7 = assay: Cell viability MTS assay; type: cell-based, human; details: 72 hours with compound
Outline: as §1

HCT-116 = assay: Cell viability MTS assay; type: cell-based, human; details: 72 hours with compound
Outline: as §1

NCI-H82 = assay: Cell viability MTS assay; type: cell-based, human; details: 72 hours with compound
Outline: as §1

A549 = assay: Cell viability MTS assay; type: cell-based, human; details: 72 hours with compound
Outline: as §1

NCI-H69 = assay: Cell viability MTS assay; type: cell-based, human; details: 72 hours with compound
Outline: as §1

SKOV-3 = assay: Cell viability MTS assay; type: cell-based, human; details: 72 hours with compound
Outline: as §1

K562 = assay: Cell viability MTS assay; type: cell-based, human; details: 72 hours with compound
Outline: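 Cells are seeded and incubated 16-24 hours, then given compound for 72 hours at 0.33% final DMSO. MTS and PMS are added for 4 hours, followed by SDS to 1.4%, and absorbance is read at 490 nm. IC50 marks a 50% drop in viable cells relative to DMSO-only wells.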

[5] = Homo sapiens, MDA-MB-231, 72 hours with compound
[6] = Homo sapiens, HT-29, 72 hours with compound

- Protein Kinase C kinase activity in comparison to carrier alone [1]: did not reduce kinase activity
- IC50 (MDA-MB-231; [5]): 4.04 µM
- IC50 (HT29; [6]): 2.89 µM
SMILES: O=C1NC(=O)[C@@H](c2cn3c4c(cccc24)CCC3)[C@H]1c1c[nH]c2ccccc12 (racemic) [(±)-Cis-3-(5,6-dihydro-4H-pyrrolo[3,2,1-ij]quinolin-1-yl)-4(1H-indol-3-yl)pyrrolidine-2,5-dione]
- reduction of mean tumor volume compared to vehicle treated control [2]: 73.4%
- IC50 [3]: 0.5 µM
- reduction of normalized mean tumor volume compared to vehicle treated control [4]: 80.5%

- melting point: 108 to 110 °C
- IC50 (MDA-MB-231; [5]): 65.9 µM
- IC50 (HT29; [6]): 55.4 µM
SMILES: O=C1NC(=O)[C@@H](c2cn3c4c(cccc24)CCC3)[C@@H]1c1cccc(O)c1 (racemic) [Example 69, (±)-Trans-3-(5,6-dihydro-4H-pyrrolo[3,2,1-ij]quinolin-1-yl)-4-(3-hydroxyphenyl)pyrrolidine-2,5-dione]

- melting point: 105 to 107 °C
- IC50 (MDA-MB-231; [5]): > 100 µM
- IC50 (HT29; [6]): > 100 µM
SMILES: O=C1NC(=O)[C@@H](c2cn3c4c(cccc24)CCC3)[C@@H]1c1ccc(O)cc1 (racemic) [Example 72, (±)-Trans-3-(5,6-dihydro-4H-pyrrolo[3,2,1-ij]quinolin-1-yl)-4-(4-hydroxyphenyl)pyrrolidine-2,5-dione]

- IC50 (MDA-MB-231; 72 hours with compound): 26.8 µM
- IC50 (PC-3): 18.7 µM
- IC50 (NCI-H446): 8.55 µM
- IC50 (SK-MEL-28): 25.5 µM
- IC50 (MCF7): > 100 µM
- IC50 (HCT-116): 14.4 µM
- IC50 (NCI-H82): 9.83 µM
- IC50 (A549): 27.9 µM
- IC50 (HT29; 72 hours with compound): 30.1 µM
- IC50 (NCI-H69): 10.5 µM
- IC50 (SKOV-3): 4.45 µM
- IC50 (K562): 4.52 µM
SMILES: O=C1NC(=O)[C@@H](c2cn3c4c(cccc24)CCC3)[C@@H]1c1c[nH]c2ccccc12 [(+)-3(S),4(R)-3-(5,6-dihydro-4H-pyrrolo[3,2,1-ij]quinolin-1-yl)-4(1H-indol-3-yl)pyrrolidine-2,5-dione]
- IC50 (MDA-MB-231 cells): 4.1 µM

- melting point: 99 to 101 °C
- IC50 (MDA-MB-231; [5]): 60.8 µM
- IC50 (HT29; [6]): 35 µM
SMILES: COc1cccc(C2=C(c3cn4c5c(cccc35)CCC4)C(=O)NC2=O)c1 [Example 65, 3-(5,6-dihydro-4H-pyrrolo[3,2,1-ij]quinolin-1-yl)-4-(3-methoxyphenyl)-1H-pyrrole-2,5-dione]

- melting point: 262 to 265 °C
- IC50 (MDA-MB-231; [5]): > 100 µM
- IC50 (HT29; [6]): > 100 µM
SMILES: O=C1NC(=O)C(c2cn3c4c(cccc24)CCC3)=C1c1ccc(OCc2ccccc2)cc1 [Example 66, 3-[4-(benzyloxy)phenyl]-4-(5,6-dihydro-4H-pyrrolo[3,2,1-ij]quinolin-1-yl)-1H-pyrrole-2,5-dione]
